One series addresses T1, p38α (Homo sapiens, UniProt Q16539).
T1 construct: c-myc (N); 6His (N); made in house; host or cells: E. coli (PET vectors)
The series is described as follows: In vitro enzyme assay, p38α. Type of series: biochemical. Conditions: read-out: IC50 against p38α. The protocol: The ability of compounds of the invention to inhibit the enzyme p38 kinase was assessed. Activity of test compounds against each of the p38α and p38β isoforms of the enzyme was determined.
Human recombinant MKK6 (GenBank Accesion Number G1209672) was isolated from Image clone 45578 (Genomics, 1996, 33, 151) and utilised to produce protein in the form of a GST fusion protein in a pGEX vector using analogous procedures to those disclosed by J. Han et al., Journal of Biological Chemistry, 1996, 271, 2886-2891. p38α (GenBank Accession Number G529039) and p38β (GenBank Accession Number G1469305) were isolated by PCR amplification of human lymphoblastoid cDNA (GenBank Accession Number GM1416) and human foetal brain cDNA [synthesised from mRNA (Clontech, catalogue no. 6525-1) using a Gibco superscript cDNA synthesis kit] respectively using oligonucleotides designed for the 5′ and 3′ ends of the human p38α and p38β genes using analogous procedures to those described by J. Han et al., Biochimica et Biophysica Acta, 1995, 1265, 224-227 and Y. Jiang et al., Journal of Biological Chemistry, 1996, 271, 17920-17926.
Both p38 protein isoforms were expressed in e coli in PET vectors. Human recombinant p38α and p38β isoforms were produced as 5′ c-myc, 6His tagged proteins. Both MKK6 and the p38 proteins were purified using standard protocols: the GST MKK6 was purified using a glutathione sepharose column and the p38 proteins were purified using nickel chelate columns.
The p38 enzymes were activated prior to use by incubation with MKK6 for 3 hours at 30° C. The unactivated coli-expressed MKK6 retained sufficient activity to fully activate both isoforms of p38. The activation incubate comprised p38α (10 μl of 10 mg/ml) or p38β (10 μl of 5 mg/ml) together with MKK6 (10 μl of 1 mg/ml), ‘Kinase buffer’ [100 μl; pH 7.4 buffer comprising Tris (50 mM), EGTA (0.1 mM), sodium orthovanadate (0.1 mM) and β-mercaptoethanol (0.1%)] and MgATP (30 μl of 50 mM Mg(OCOCH3)2 and 0.5 mM ATP). This produced enough activated p38 enzyme for 3 Microtiter plates.
Test compounds were solubilised in DMSO and 10 μl of a 1:10 diluted sample in ‘Kinase Buffer’ was added to a well in a Microtiter plate. For single dose testing, the compounds were tested at 10 μM. ‘Kinase Assay Mix’ [30 μl; comprising Myelin Basic Protein (Gibco BRL cat. no. 1322B-010; 1 ml of a 3.33 mg/ml solution in water), activated p38 enzyme (50 μl ) and ‘Kinase Buffer’ (2 ml)] was then added followed by ‘Labelled ATP’ [10 μl; comprising 50 μM ATP, 0.1 μCi ^33P ATP (Amersham International cat. no. BF1000) and 50 mM Mg(OCOCH3)2]. The plates were incubated at room temperature with gentle agitation. Plates containing p38α were incubated for 90 min and plates containing p38β P were incubated for 45 min. Incubation was stopped by the addition of 50 μl of 20% trichloroacetic acid (TCA). The precipitated protein was phosphorylated by p38 kinase and test compounds were assessed for their ability to inhibit this phosphorylation. The plates were filtered using a Canberra Packard Unifilter and washed with 2% TCA, dried overnight and counted on a Top Count scintillation counter.
Test compounds were tested initially at a single dose and active compounds were retested to allow IC50 values to be determined.

The test system of series [1] is TNFα production by human peripheral blood mononuclear cells. Description: PBMC test: inhibition of LPS-stimulated TNFα production. Type of series: cell-based. The method, then:
The ability of compounds of this invention to inhibit TNFα production was assessed by using human peripheral blood mononuclear cells which synthesise and secrete TNFα when stimulated with lipopolysaccharide.
Peripheral blood mononuclear cells (PBMC) were isolated from heparinised (10 units/ml heparin) human blood by density centrifugation (Lymphoprep™; Nycomed). Mononuclear cells were resuspended in culture medium [RPMI 1640 medium (Gibco) supplemented with 50 units/ml penicillin, 50 μg/ml streptomycin, 2 mM glutamine and 1% heat-inactivated human AB serum (Sigma H-1513)]. Compounds were solubilised in DMSO at a concentration of 50 mM, diluted 1:100 in culture medium and subsequently serial dilutions were made in culture medium containing 1% DMSO. PBMCs (2.4×10^5 cells in 160 μl culture medium) were incubated with 20 μl of varying concentrations of test compound (triplicate cultures) or 20 μl culture medium containing 1% DMSO (control wells) for 30 minutes at 37° C. in a humidified (5%CO2/95% air) incubator (Falcon 3072; 96 well flat-bottom tissue culture plates). 20 μl lipopolysaccharide [LPS E.Coli 0111:B4 (Sigma L-4130), final concentration 10 μg/ml] solubilised in culture medium was added to appropriate wells. 20 μl culture medium was added to “medium alone” control wells. Six “LPS alone” and four “medium alone” controls were included on each 96 well plate. Varying concentrations of a known TNFα inhibitor were included in each test, i.e. an inhibitor of the PDE Type IV enzyme (for example see Semmler, J. Wachtel. H and Endres, S., Int. J. Immunopharmac. (1993), 15(3), 409-413) or an inhibitor of pro TNFα convertase (for example, see McGeehan, G. M. et al. Nature (1994) 370, 558-561). Plates were incubated for 7 hours at 37° C. (humidified incubator) after which 100 μl of the supernatant was removed from each well and stored at −70° C. (96 well round-bottom plates; Corning 25850). TNFα levels were determined in each sample using a human TNFα ELISA (see WO92/10190 and Current Protocols in Molecular Biology, vol 2 by Frederick M. Ausbel et al., John Wiley and Sons Inc.).
% inhibition=(LPS alone−medium alone)−(test concentration−medium alone)/(LPS alone−medium alone)×100

Series [2] relates to TNFα production in human whole blood. The series is described as follows: Human Whole Blood test: inhibition of LPS-stimulated TNFα production. Type of series: cell-based. The method, then: The ability of the compounds of this invention to inhibit TNFα production was also assessed in a human whole blood assay. Human whole blood secretes TNFα when stimulated with LPS. This property of blood forms the basis of an assay which is used as a secondary test for compounds which profile as active in the PBMC test.
Heparinised (10 units/ml) human blood was obtained from volunteers. 160 μl whole blood were added to 96 well round-bottom plates (Corning 25850). Compounds were solubilised and serially diluted in RPMI 1640 medium (Gibco) supplemented with 50 units/ml penicillin, 50 μg/ml streptomycin and 2 mM glutamine, as detailed above. 20 μl of each test concentration was added to appropriate wells (triplicate cultures). 20 μl of RPMI 1640 medium supplemented with antibiotics and glutamine was added to control wells. Plates were incubated for 30 minutes at 37° C. (humidified incubator), prior to addition of 20 μl LPS (final concentration 10 μg/ml). RPMI 1640 medium was added to control wells. Six “LPS alone” and four “medium alone” controls were included on each plate. A known TNFα synthesis/secretion inhibitor was included in each test. Plates were incubated for 6 hours at 37° C. (humidified incubator). […] TNFα levels were measured by ELISA (see WO92/10190 and Current Protocols in Molecular Biology, vol 2 by Frederick M. Ausbel et al., John Wiley and Sons Inc.). […]

T1 sequence (Q16539 whole entry): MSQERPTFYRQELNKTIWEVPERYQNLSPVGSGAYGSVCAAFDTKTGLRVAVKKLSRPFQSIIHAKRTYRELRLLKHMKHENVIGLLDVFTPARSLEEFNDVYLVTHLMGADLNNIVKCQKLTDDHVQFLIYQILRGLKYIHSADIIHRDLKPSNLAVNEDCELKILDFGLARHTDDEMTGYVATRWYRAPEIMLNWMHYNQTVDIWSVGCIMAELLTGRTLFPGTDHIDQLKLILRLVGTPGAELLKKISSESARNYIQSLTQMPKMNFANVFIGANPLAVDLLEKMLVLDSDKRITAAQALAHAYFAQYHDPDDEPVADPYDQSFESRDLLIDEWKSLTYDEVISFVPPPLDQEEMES

Consider `Cc1ccc(NC(=O)c2ccnc(N3CCCC3)c2)cc1NC(=O)c1cccc(CN2CCN(C)CC2)c1` [N-{3-[3-(4-methylpiperazin-1-ylmethyl)benzamido]-4-methylphenyl}-2-pyrrolidin-1-ylpyridine-4-carboxamide], for which the IC50 on p38α is around 100 nM; in series [1], below 500 nM.
On to `Cc1ccc(NC(=O)c2ccco2)cc1NC(=O)c1cccc(CN2CCN(C)CC2)c1` [N-{4-methyl-3-[3-(4-methylpiperazin-1-ylmethyl)benzamido]phenyl}furan-2-carboxamide], for which the IC50 on p38α was around 1000 nM; in series [1], around 4000 nM.
For the compound `CCN(CC)Cc1ccc(C(=O)Nc2cc(NC(=O)c3ccnc(N4CCOCC4)c3)ccc2C)cc1` [N-[3-(4-diethylaminomethylbenzamido)-4-methylphenyl]-2-morpholinopyridine-4-carboxamide], the IC50 is around 200 nM on p38α, around 10000 nM in series [2] and below 500 nM in series [1].
Regarding `Cc1ccc(NC(=O)c2ccno2)cc1NC(=O)c1cccc(CN2CCN(C)CC2)c1` [N-{4-methyl-3-[3-(4-methylpiperazin-1-ylmethyl)benzamido]phenyl}isoxazole-5-carboxamide], the IC50 was around 800 nM on p38α and around 1000 nM in series [1].
`Cc1ccc(NC(=O)c2ccc3ncccc3c2)cc1NC(=O)c1cccc(OCCN2CCOCC2)c1` [Example 13, N-{3-[3-(2-morpholinoethoxy)benzamido]-4-methylphenyl}quinoline-6-carboxamide] registered a melting point of 216 to 217 °C.
On to `Cc1ccc(NC(=O)c2ccnc(N3CCOCC3)c2)cc1NC(=O)c1cccc(CN2CCN(C)CC2)c1` [N-{3-[3-(4-methylpiperazin-1-ylmethyl)benzamido]-4-methylphenyl}-2-morpholinopyridine-4-carboxamide], for which the IC50 was around 100 nM on p38α, around 7000 nM in series [2] and below 500 nM in series [1].

Source of the values: patent US6455520B1, “Benzamide derivatives and their use as cytokine inhibitors” (Astra Zeneca AB, priority 1998, dated 2002).
